The text below walks through data of ChEMBL document CHEMBL1132739, “Pyrrolo[2,3-d]pyrimidines containing an extended 5-substituent as potent and selective inhibitors of lck I” (Bioorg Med Chem Lett, 2000).

As a reminder, the IC50 is the concentration at which inhibition is half-maximal.

Test [1] deals with T1, Tyrosine-protein kinase Lck (Homo sapiens, UniProt P06239).
Description: Inhibition of p56 Lck tyrosine kinase at 5 uM ATP
The test system of test [2] is Jurkat. Description: Inhibition of anti-CD3 stimulated IL-2 production by Jurkat cells. The test is classed as functional, cell-based. As to conditions: Homo sapiens.
The test system of test [3] is Jurkat. The test is described as follows: Inhibition of MLR stimulated IL-2 production in Jurkat cells. The test is classed as functional, cell-based. As to conditions: Homo sapiens.
For test [4], the target named is Cyclin-dependent kinase 1/cyclin B (Homo sapiens, UniProt P06493). Description: Inhibition of CDC2/CyB. The format is protein-complex assay.
Test [5] addresses T1, Tyrosine-protein kinase Lck. This is another data set of the same source.
Description: Inhibition of p56 Lck tyrosine kinase at 1 mM ATP
Test [6] has the same target. The source holds these as a separate data set.
Description: Inhibition of p56 Lck tyrosine kinase catalytic domain at 5 uM ATP
The test system of test [7] is Jurkat. The test is described as follows: Inhibition of PMA stimulated IL-2 production in Jurkat cells. The format is functional, cell-based. As to conditions: Homo sapiens.
Test [8] has as its target Proto-oncogene tyrosine-protein kinase Src (Homo sapiens, UniProt P12931).
Description: Inhibition of src at 5 mM ATP
For test [9], the target named is Vascular endothelial growth factor receptor 2 (Homo sapiens, UniProt P35968).
Vascular endothelial growth factor receptor 2, sequence (P35968 whole entry): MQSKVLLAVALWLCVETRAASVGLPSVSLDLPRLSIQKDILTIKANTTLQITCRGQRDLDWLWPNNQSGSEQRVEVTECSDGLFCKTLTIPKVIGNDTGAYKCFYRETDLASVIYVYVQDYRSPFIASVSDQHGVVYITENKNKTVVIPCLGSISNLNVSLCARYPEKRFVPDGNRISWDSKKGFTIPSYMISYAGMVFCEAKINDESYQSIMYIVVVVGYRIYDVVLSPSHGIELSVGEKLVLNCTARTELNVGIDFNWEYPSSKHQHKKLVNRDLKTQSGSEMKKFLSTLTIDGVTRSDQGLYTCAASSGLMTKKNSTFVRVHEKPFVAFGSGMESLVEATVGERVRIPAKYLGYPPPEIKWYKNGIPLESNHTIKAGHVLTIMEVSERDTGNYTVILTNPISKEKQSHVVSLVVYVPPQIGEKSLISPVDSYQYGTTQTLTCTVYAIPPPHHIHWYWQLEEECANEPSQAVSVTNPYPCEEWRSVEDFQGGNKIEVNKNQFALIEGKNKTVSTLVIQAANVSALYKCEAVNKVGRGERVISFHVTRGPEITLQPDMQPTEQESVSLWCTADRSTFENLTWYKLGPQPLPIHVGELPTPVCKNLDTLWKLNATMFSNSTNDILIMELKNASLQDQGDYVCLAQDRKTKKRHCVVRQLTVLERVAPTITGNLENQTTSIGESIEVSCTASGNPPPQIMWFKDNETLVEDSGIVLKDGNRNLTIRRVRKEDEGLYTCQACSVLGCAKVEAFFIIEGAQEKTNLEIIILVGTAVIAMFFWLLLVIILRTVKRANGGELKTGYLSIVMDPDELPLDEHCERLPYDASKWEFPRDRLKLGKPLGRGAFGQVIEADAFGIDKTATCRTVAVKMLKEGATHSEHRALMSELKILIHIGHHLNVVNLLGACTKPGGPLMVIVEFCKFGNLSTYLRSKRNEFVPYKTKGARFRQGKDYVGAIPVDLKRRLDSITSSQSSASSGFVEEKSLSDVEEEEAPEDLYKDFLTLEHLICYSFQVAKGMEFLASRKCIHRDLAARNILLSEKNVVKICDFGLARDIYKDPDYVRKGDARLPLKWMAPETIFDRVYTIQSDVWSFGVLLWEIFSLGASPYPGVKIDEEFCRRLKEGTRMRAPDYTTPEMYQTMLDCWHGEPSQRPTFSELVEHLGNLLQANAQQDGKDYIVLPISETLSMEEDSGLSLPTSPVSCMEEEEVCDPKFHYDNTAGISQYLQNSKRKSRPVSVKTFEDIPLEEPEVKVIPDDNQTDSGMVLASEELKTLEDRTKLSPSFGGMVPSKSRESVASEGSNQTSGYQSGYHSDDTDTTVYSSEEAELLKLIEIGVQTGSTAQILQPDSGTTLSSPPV
Description: Inhibition of Vascular endothelial growth factor receptor 2 at 5 uM ATP
A further test has as its target Protein kinase C (PKC). Description: Inhibition of PKC. The format is protein assay.
Test [10] addresses T2, Tyrosine-protein kinase ZAP-70 (Homo sapiens, UniProt P43403).
T2 sequence (P43403 whole entry): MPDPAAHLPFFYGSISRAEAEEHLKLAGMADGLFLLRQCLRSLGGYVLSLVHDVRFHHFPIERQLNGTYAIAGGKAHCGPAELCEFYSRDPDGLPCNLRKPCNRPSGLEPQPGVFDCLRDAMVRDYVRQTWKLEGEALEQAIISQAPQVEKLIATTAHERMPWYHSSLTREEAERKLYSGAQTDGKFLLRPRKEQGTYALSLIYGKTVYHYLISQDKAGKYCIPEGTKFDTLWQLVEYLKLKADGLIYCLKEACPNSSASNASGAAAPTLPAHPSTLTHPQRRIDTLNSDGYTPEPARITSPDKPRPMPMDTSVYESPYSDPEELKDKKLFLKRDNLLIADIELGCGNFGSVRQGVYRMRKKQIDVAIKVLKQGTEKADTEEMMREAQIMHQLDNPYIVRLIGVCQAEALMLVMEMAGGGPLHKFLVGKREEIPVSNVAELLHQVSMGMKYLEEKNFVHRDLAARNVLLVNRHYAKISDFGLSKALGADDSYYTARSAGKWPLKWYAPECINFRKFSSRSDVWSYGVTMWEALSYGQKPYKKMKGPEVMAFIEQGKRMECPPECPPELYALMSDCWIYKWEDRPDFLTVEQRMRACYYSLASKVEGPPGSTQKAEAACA
The test is described as follows: Inhibition of Zap 70.

In test [11] the target is T1, Tyrosine-protein kinase Lck. The source holds these as a separate data set.
Description: Inhibition of p56 Lck tyrosine kinase catalytic domain at 1 mM ATP
In the next test the target is Angiopoietin-1 receptor (Homo sapiens, UniProt Q02763).
Angiopoietin-1 receptor, sequence (Q02763 whole entry): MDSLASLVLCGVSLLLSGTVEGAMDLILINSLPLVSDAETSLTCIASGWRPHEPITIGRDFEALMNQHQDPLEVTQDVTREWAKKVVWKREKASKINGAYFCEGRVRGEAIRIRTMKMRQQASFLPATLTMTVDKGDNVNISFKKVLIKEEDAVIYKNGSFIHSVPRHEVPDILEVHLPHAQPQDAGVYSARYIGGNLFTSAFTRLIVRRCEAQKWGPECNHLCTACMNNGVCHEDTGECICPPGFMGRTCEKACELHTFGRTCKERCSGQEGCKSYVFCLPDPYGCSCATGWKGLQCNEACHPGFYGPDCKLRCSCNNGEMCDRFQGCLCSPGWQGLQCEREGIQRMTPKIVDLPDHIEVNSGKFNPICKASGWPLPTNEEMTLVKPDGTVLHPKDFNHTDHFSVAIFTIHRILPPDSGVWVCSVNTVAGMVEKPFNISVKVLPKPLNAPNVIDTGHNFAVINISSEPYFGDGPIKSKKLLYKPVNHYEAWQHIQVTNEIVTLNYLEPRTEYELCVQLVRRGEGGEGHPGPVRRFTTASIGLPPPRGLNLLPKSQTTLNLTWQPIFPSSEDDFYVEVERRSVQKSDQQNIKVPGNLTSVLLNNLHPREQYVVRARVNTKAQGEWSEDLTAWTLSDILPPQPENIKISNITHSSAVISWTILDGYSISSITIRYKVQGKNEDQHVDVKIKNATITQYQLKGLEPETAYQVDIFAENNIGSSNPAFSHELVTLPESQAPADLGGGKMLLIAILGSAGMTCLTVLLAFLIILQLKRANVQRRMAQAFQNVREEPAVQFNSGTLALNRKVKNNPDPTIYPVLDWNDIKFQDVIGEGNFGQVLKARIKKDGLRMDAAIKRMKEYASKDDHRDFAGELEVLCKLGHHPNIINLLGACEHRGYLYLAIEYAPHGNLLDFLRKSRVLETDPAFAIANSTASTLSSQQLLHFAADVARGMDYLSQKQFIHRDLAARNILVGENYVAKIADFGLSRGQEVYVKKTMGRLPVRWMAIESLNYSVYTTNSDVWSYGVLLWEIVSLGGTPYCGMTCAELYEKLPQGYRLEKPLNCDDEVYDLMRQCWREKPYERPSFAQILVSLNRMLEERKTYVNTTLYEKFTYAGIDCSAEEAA

Proto-oncogene tyrosine-protein kinase Src, sequence (P12931 2-536 limits assumed): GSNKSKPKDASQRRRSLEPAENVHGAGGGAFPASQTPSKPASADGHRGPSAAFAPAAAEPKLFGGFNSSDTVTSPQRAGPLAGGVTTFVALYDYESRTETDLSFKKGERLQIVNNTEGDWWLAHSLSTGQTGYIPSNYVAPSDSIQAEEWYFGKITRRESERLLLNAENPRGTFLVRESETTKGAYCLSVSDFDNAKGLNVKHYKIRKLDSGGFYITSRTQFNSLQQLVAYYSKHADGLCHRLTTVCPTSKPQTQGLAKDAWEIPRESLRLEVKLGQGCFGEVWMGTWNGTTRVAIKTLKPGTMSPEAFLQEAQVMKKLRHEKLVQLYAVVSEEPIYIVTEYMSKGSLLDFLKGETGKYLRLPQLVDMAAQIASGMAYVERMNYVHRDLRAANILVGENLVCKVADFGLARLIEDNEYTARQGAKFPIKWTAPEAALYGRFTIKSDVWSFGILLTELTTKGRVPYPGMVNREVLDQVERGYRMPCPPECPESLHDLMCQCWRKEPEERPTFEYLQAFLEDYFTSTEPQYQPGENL
T1 sequence (P06239 whole entry): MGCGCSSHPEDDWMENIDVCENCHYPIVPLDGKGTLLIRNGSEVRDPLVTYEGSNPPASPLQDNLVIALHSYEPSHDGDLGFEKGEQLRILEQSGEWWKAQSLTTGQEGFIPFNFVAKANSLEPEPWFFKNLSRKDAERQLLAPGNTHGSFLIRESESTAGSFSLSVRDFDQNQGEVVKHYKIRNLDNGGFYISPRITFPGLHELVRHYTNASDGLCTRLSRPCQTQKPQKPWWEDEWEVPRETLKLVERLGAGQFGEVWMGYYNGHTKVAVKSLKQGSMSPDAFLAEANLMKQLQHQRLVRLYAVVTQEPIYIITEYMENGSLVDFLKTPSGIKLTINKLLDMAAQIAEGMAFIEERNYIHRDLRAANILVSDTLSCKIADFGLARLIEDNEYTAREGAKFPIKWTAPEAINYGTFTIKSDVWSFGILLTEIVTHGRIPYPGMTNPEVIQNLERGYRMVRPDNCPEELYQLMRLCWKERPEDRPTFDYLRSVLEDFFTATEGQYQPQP
Description for Angiopoietin-1 receptor: Inhibition of tie-2 at 5 uM ATP

For `c1ccc(Oc2ccc(Nc3ncnc4ccccc34)cc2)cc1`, the IC50 in test [1] is under 8 nM.
Same read-out and setting: the result for `CC(C)(C)n1cc(-c2ccc(Cl)cc2)c2c(N)ncnc21` reads 220 nM.
Consider `Cc1ccc(-c2nn(C(C)(C)C)c3ncnc(N)c23)cc1`, for which the IC50 with Jurkat [2] worked out at 1200 nM; in the test on Jurkat [3] it was 400 nM.
In the case of `Nc1ncnc2c1c(-c1ccc(Oc3ccccc3)cc1)cn2C1CCCC1`, the IC50 was 40 nM in the test with Jurkat [2]; over 50 µM in [4]; 16 nM in test [5]; 2 nM in test [6]; under 1 nM in [1]; 1500 nM with Jurkat [7]. The IC50 in test [8] is 70 nM; in test [9] it was 1570 nM; at Protein kinase C (PKC) it was over 33 µM; in [10], over 50 µM; in test [11] it was 1070 nM.
On to `Nc1ncnc2c1c(-c1ccccc1Oc1ccccc1)cn2C1CCCC1`, for which the concentration for half-maximal inhibition (IC50) was 390 nM in test [1] and over 50000 nM in test [9].
`Nc1ncnc2c1c(-c1ccc(Oc3ccccc3)cc1)cn2C1CCC(O)C1` (stereo unspecified): the IC50 is 58.3 nM against Angiopoietin-1 receptor; over 50 µM in test [4]; 3000 nM with Jurkat [7]; 88 nM in test [8]; 85 nM in test [9]; 28 nM with Jurkat [3]. Besides, the IC50 is over 33 µM against Protein kinase C (PKC) and over 50 µM in test [10].
In turn, `Nc1ncnc2c1c(-c1cccc(Oc3ccccc3)c1)cn2C1CCCC1` returned an IC50 in [8] of over 1000 nM.
